Experimental data taken from article PMC8599513, “Efficient biosynthesis of nucleoside cytokinin angustmycin A containing an unusual sugar system” (Nature Communications, 2021).
Values belong to the molecule of their own block, whether it stands above or below them.

How the values were obtained:
AgmF = test system: T1, AgmF; assay: HPLC dehydration assay; type: biochemical, Streptomyces angustmyceticus; details: dehydration to angustmycin A; kinetic assay conditions only in supplement
T1 construct: recombinant, overexpressed in and purified from E. coli BL21(DE3)

AgmE = molecular target: T2, AgmE (Streptomyces angustmyceticus, UniProt A0A5J4LCM7); assay: HPLC and LC-MS, AMP formation; type: biochemical; details: 1 mM Mg2+, 50 mM PBS pH 7.5, 30 °C
T2 construct: gene San01_08850; recombinant, overexpressed in and purified from E. coli BL21(DE3)
T2 sequence (A0A5J4LCM7 1-178): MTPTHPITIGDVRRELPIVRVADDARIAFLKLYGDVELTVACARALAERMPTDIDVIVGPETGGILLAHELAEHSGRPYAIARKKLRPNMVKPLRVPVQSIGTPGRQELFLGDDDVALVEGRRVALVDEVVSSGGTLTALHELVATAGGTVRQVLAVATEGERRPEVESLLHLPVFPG

AgmA = molecular target: T3, AgmA (Streptomyces angustmyceticus, UniProt A0A5J4L869); assay: HPLC and LC-MS, adenine release; type: biochemical; details: 50 mM Tris-Cl pH 7.5, 1 mM substrate, 30 °C, 2 h
T3 construct: gene San01_08890; recombinant, overexpressed in and purified from E. coli BL21(DE3)
T3 sequence (A0A5J4L869 1-193): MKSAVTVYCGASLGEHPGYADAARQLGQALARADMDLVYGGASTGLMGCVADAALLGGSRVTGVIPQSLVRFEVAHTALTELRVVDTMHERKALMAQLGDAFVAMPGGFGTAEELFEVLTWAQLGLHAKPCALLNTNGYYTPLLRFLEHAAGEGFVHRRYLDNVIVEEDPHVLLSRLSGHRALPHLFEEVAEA

Km (AgmF): 1380 ± 121 µM
SMILES: Nc1ncnc2c1ncn2[C@]1(CO)O[C@H](CO)[C@@H](O)[C@H]1O [compound 2, angustmycin C]

SMILES: O=P(O)(O)OC[C@H]1O[C@H](OP(=O)(O)OP(=O)(O)O)[C@H](O)[C@@H]1O [PRPP]
HPLC and LC-MS, AMP formation (AgmE; co-substrate adenine): assayed in vitro with the substrates adenine and phosphoribosyl pyrophosphate (PRPP)

SMILES: Nc1ncnc2c1ncn2[C@@H]1O[C@H](COP(=O)(O)O)[C@@H](O)[C@H]1O [AMP]
HPLC and LC-MS, adenine release (AgmA): AgmA is capable of consuming AMP/dAMP as a substrate

SMILES: Nc1ncnc2[nH]cnc12 [adenine]
HPLC and LC-MS, AMP formation (AgmE; co-substrate PRPP 1 mM, methods print adenosine instead of adenine): assayed in vitro with the substrates adenine and phosphoribosyl pyrophosphate (PRPP)

SMILES: Nc1ncnc2c1ncn2[C@H]1C[C@H](O)[C@@H](COP(=O)(O)O)O1 [dAMP]
HPLC and LC-MS, adenine release (AgmA): AgmA is capable of consuming AMP/dAMP as a substrate
